From patent US20250186541A1, “DLL3 TARGETING PEPTIDES AND CONSTRUCTS THEREOF” (MARIANA ONCOLOGY INC., priority 2023, published 2025)
Numbered stars: 1 amine (or outer) side, 2 acyl side, 3 side chain; on linkers, the order of the positions; unused ones are H or OH. Bridge positions count the residues as written; N and C are the ends. Square brackets hold non-standard residues; d marks the D form. Side chains are listed from the residue outwards. Peptide text beside a SMILES is read from it. * marks the point of attachment. ξ: configuration not given here. Ala(piperidin-4-yl) = O=C([C@H](CC1CCN([*:3])CC1)N[*:1])[*:2]; DOTA = O=C(O)CN1CCN(CC(=O)O)CCN(CC(=O)*)CCN(CC(=O)O)CC1; X3 = O=C([C@H](Cc1ccccc1CN[*:3])N[*:1])[*:2]; 1Nal = N[C@@H](Cc1cccc2ccccc12)C(=O)O; 2Nal = N[C@@H](Cc1ccc2ccccc2c1)C(=O)O; Phe(2-Me) = Cc1ccccc1C[C@H](N)C(=O)O; oXylylene = c1ccc(C[*:2])c(C[*:1])c1; ξγGlu = O=C(O)C(CCC(=O)[*:2])N[*:1]; pXylylene = c1cc(C[*:2])ccc1C[*:1]; tBuAla = CC(C)(C)C[C@H](N)C(=O)O; NMeD = CN[C@@H](CC(=O)O)C(=O)O; AllylGly = C=CC[C@H](N)C(=O)O; Chg = N[C@H](C(=O)O)C1CCCCC1; Pen = CC(C)(S)[C@H](N)C(=O)O; αMeP = C[C@@]1(C(=O)O)CCCN1; Ahx = NCCCCCC(=O)O

target: T1, human DLL3 (Homo sapiens, UniProt Q9NYJ7); assay: Affinity determination by Surface Plasmon Resonance (SPR), Biacore, 1:1 binding model; settings: biotinylated human DLL3 on streptavidin chip, 25° C.; NB = nonbinding
T1 construct: biotin (biotinylated)
T1 sequence (Q9NYJ7 27-618): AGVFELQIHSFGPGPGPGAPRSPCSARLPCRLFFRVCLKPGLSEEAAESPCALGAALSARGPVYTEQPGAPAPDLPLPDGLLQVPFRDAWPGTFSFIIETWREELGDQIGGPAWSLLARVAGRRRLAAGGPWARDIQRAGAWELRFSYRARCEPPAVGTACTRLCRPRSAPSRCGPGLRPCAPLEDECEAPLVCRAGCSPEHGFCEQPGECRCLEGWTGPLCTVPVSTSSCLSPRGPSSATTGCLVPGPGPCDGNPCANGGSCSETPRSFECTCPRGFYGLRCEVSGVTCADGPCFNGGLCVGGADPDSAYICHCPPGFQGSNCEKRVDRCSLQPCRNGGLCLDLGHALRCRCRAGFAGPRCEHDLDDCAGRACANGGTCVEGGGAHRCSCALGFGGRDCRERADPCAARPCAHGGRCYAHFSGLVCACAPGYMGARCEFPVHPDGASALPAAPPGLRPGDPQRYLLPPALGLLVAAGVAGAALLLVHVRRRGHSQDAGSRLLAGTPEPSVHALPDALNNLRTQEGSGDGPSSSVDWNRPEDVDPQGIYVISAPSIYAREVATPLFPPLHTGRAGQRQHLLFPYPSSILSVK
How it was run: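 SPR with biotinylated human DLL3 captured on a streptavidin chip, with a reference surface subtracted. Samples were injected at several concentrations at 100 μL/min in phosphate buffer with 137 mM NaCl, 2.7 mM KCl, 0.05% P20 and 2% DMSO. Kinetic and affinity constants came from a 1:1 binding fit.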

| SMILES | SPR KD (nM) | Kd |
| --- | --- | --- |
| CC(=O)N[C@H](C(=O)N[C@@H](CO)C(=O)N[C@@H](CC(=O)O)C(=O)N[C@H]1CSCc2ccccc2CSC[C@@H](C(=O)N2CCC[C@@]2(C)C(=O)N[C@@H](Cc2ccccc2)C(=O)N[C@@H](CC(=O)O)C(=O)N[C@H](CCCCNC(=O)CN2CCN(CC(=O)O)CCN(CC(=O)O)CCN(CC(=O)O)CC2)C(N)=O)NC(=O)[C@H](CC(N)=O)NC(=O)[C@H](Cc2c[nH]c3ccccc23)NC(=O)[C@H](CCC(N)=O)NC(=O)[C@H](CC(C)C)NC(=O)[C@H](Cc2cccc3ccccc23)NC1=O)C1CCCCC1 [compound 143, Ac-(Chg)-S-D-C(oDBX)-(1Nal)-L-Q-W-N-C(2)-(aMe-P)-F-D-D-Lys(DOTA)-CONH2] (Ac-[Chg]SDC[1Nal]LQWNC[αMeP]FD[dK](DOTA)-NH2; linker 4-10 via oXylylene) | slow kon | – |
| CC(=O)N[C@H](C(=O)N[C@@H](CO)C(=O)N[C@@H](CC(=O)O)C(=O)N[C@H]1CSCc2ccc(cc2)CSC[C@@H](C(=O)N2CCC[C@@]2(C)C(=O)N[C@@H](Cc2ccccc2)C(=O)N[C@@H](CC(=O)O)C(=O)N[C@H](CCCCNC(=O)CN2CCN(CC(=O)O)CCN(CC(=O)O)CCN(CC(=O)O)CC2)C(N)=O)NC(=O)[C@H](CC(N)=O)NC(=O)[C@H](Cc2c[nH]c3ccccc23)NC(=O)[C@H](CCC(N)=O)NC(=O)[C@H](CC(C)C)NC(=O)[C@H](Cc2cccc3ccccc23)NC1=O)C1CCCCC1 [compound 145, Ac-(Chg)-S-D-C(pDBX)-(1Nal)-L-Q-W-N-C(2)-(aMe-P)-F-D-D-Lys(DOTA)-CONH2] (Ac-[Chg]SDC[1Nal]LQWNC[αMeP]FD[dK](DOTA)-NH2; linker 4-10 via pXylylene) | – | > 30 nM |
| CC(=O)N[C@H](C(=O)N[C@@H](CO)C(=O)N[C@@H](CC(=O)O)C(=O)N[C@H]1CSSC[C@@H](C(=O)N2CCC[C@@]2(C)C(=O)N[C@@H](Cc2ccccc2)C(=O)N[C@@H](CC(=O)O)C(=O)N[C@H](CCCCNC(=O)CN2CCN(CC(=O)O)CCN(CC(=O)O)CCN(CC(=O)O)CC2)C(N)=O)NC(=O)[C@H](CC(N)=O)NC(=O)[C@H](Cc2ccc3ccccc3c2)NC(=O)[C@H](CCC(N)=O)NC(=O)[C@H](CC(C)(C)C)NC(=O)[C@H](Cc2cccc3ccccc23)NC1=O)C1CCCCC1 [compound 148, Ac-(Chg)-S-D-C(3)-(1Nal)-(t-Bu-Ala)-Q-(2Nal)-N-C(3)-(aMe-P)-F -D-D-Lys(DOTA)-CONH2] (Ac-[Chg]SDC[1Nal][tBuAla]Q[2Nal]NC[αMeP]FD[dK](DOTA)-NH2; disulfide 4-10) | – | 0.29 nM |
| CC(C)(C)C[C@@H]1NC(=O)[C@H](Cc2cccc3ccccc23)NC(=O)[C@@H](NC(=O)[C@H](CC(=O)O)NC(=O)[C@H](CO)NC(=O)CCCCCNC(=O)CN2CCN(CC(=O)O)CCN(CC(=O)O)CCN(CC(=O)O)CC2)CSSC[C@@H](C(=O)N2CCC[C@@]2(C)C(=O)N[C@@H](Cc2ccccc2)C(=O)N[C@@H](CC(=O)O)C(=O)O)NC(=O)[C@H](CC(N)=O)NC(=O)[C@H](Cc2ccc3ccccc3c2)NC(=O)[C@H](CCC(N)=O)NC1=O [compound 156, DOTA-Ahx-S-D-C(3)-(1Nal)-(t-Bu-Ala)-Q-(2Nal)-N-C(3)-(aMe-P)-F -D-COOH] ({DOTA-Ahx}-SDC[1Nal][tBuAla]Q[2Nal]NC[αMeP]FD-OH; disulfide 3-9) | – | 0.11 nM |
| CC(=O)N[C@H](C)C(=O)N[C@@H](CO)C(=O)N[C@@H](CC(=O)O)C(=O)N[C@H]1C/C=C/C[C@@H](C(=O)N2CCC[C@@]2(C)C(=O)N[C@@H](Cc2ccccc2)C(=O)N[C@@H](CC(=O)O)C(=O)N[C@H](CCCCNC(=O)CN2CCN(CC(=O)O)CCN(CC(=O)O)CCN(CC(=O)O)CC2)C(N)=O)NC(=O)[C@H](CC(N)=O)NC(=O)[C@H](Cc2ccc3ccccc3c2)NC(=O)[C@H](CCC(N)=O)NC(=O)[C@H](CC(C)(C)C)NC(=O)[C@H](Cc2cccc3ccccc23)NC1=O [compound 161, Ac-(D-Ala)-S-D-AllyG(4)-(1Nal)-(t-Bu-Ala)-Q-(2Nal)-N-AllyG(4)-(aMe-P)-F -D-D-Lys(DOTA)-CONH2] (Ac-[dA]SD[AllylGly][1Nal][tBuAla]Q[2Nal]N[AllylGly][αMeP]FD[dK](DOTA)-NH2; staple (E) 4-10) | – | 0.24 nM |

Other lines, results leading:

| SPR KD (nM) | Kd | SMILES |
| --- | --- | --- |
| – | 0.29 nM | CC(=O)N[C@H](C)C(=O)N[C@@H](CO)C(=O)N[C@@H](CC(=O)O)C(=O)N[C@H]1CSSC[C@@H](C(=O)N2CCC[C@@]2(C)C(=O)N[C@@H](Cc2ccccc2)C(=O)N[C@@H](CC(=O)O)C(=O)N[C@H](CCCCNC(=O)CN2CCN(CC(=O)O)CCN(CC(=O)O)CCN(CC(=O)O)CC2)C(N)=O)NC(=O)[C@H](CC(N)=O)NC(=O)[C@H](Cc2ccc3ccccc3c2)NC(=O)[C@H](CC2CCNCC2)NC(=O)[C@H](CC(C)(C)C)NC(=O)[C@H](Cc2cccc3ccccc23)NC1=O [compound 146, Ac-(D-Ala)-S-D-C(3)-(1Nal)-(t-Bu-Ala)-[3-(4-piperidinyl)-Ala]-(2Nal)-N-C(3)-(aMe-P)-F -D-D-Lys(DOTA)-CONH2] (Ac-[dA]SDC[1Nal][tBuAla][Ala(piperidin-4-yl)][2Nal]NC[αMeP]FD[dK](DOTA)-NH2; disulfide 4-10) |
| – | > 30 nM | CC(=O)N[C@H](C)C(=O)N[C@@H](CO)C(=O)N[C@@H](CC(=O)O)C(=O)N[C@H]1CSSC[C@@H](C(=O)N2CCC[C@@]2(C)C(=O)N[C@@H](Cc2ccccc2)C(=O)N(C)[C@@H](CC(=O)O)C(=O)N[C@H](CCCCNC(=O)CN2CCN(CC(=O)O)CCN(CC(=O)O)CCN(CC(=O)O)CC2)C(=O)O)NC(=O)[C@H](CC(N)=O)NC(=O)[C@H](Cc2ccc3ccccc3c2)NC(=O)[C@H](CCC(N)=O)NC(=O)[C@H](CC(C)(C)C)NC(=O)[C@H](Cc2cccc3ccccc23)NC1=O [compound 149, Ac-(D-Ala)-S-D-C(3)-(1Nal)-(t-Bu-Ala)-Q-(2Nal)-N-C(3)-(aMe-P)-F-(NMe-D)-D-Lys(DOTA)-CONH2] (Ac-[dA]SDC[1Nal][tBuAla]Q[2Nal]NC[αMeP]F[NMeD][dK](DOTA)-OH; disulfide 4-10) |
| – | 0.51 nM | CC(=O)N[C@H](C)C(=O)N[C@@H](CO)C(=O)N[C@@H](CC(=O)O)C(=O)N[C@H]1CSSC[C@@H](C(=O)N2CCC[C@@]2(C)C(=O)N[C@@H](Cc2ccccc2C)C(=O)N[C@@H](CC(=O)O)C(N)=O)NC(=O)[C@H](CC(N)=O)NC(=O)[C@H](Cc2ccc3ccccc3c2)NC(=O)[C@H](CCCCNC(=O)CCC(NC(=O)CN2CCN(CC(=O)O)CCN(CC(=O)O)CCN(CC(=O)O)CC2)C(=O)O)NC(=O)[C@H](CC(C)(C)C)NC(=O)[C@H](Cc2cccc3ccccc23)NC1=O (stereo partly drawn) [compound 152, Ac-(D-Ala)-S-D-C(3)-(1Nal)-(t-Bu-Ala)-[L-Lys(yE-DOTA)]-(2Nal)-N-C(3)-(aMe-P)-(2Me-F)-D-CONH2] (Ac-[dA]SDC[1Nal][tBuAla]K([ξγGlu-DOTA])[2Nal]NC[αMeP][Phe(2-Me)]D-NH2; disulfide 4-10) |
| – | 0.11 nM | Cc1ccccc1C[C@H](NC(=O)[C@]1(C)CCCN1C(=O)[C@@H]1CSSC[C@H](NC(=O)[C@H](CC(=O)O)NC(=O)[C@H](CO)NC(=O)CCCCCNC(=O)CN2CCN(CC(=O)O)CCN(CC(=O)O)CCN(CC(=O)O)CC2)C(=O)N[C@@H](Cc2cccc3ccccc23)C(=O)N[C@@H](CC(C)(C)C)C(=O)N[C@@H](CCC(N)=O)C(=O)N[C@@H](Cc2ccc3ccccc3c2)C(=O)N[C@@H](CC(N)=O)C(=O)N1)C(=O)N[C@@H](CC(=O)O)C(N)=O [compound 155, DOTA-Ahx-S-D-C(3)-(1Nal)-(t-Bu-Ala)-Q-(2Nal)-N-C(3)-(aMe-P)-(2Me-F)-D-CONH2] ({DOTA-Ahx}-SDC[1Nal][tBuAla]Q[2Nal]NC[αMeP][Phe(2-Me)]D-NH2; disulfide 3-9) |
| – | > 30 nM | CC(=O)N[C@H](C)C(=O)N[C@@H](CO)C(=O)N[C@@H](CC(=O)O)C(=O)N[C@H]1CSSC[C@@H](C(=O)N2CCC[C@@]2(C)C(=O)N[C@@H](Cc2ccccc2CNC(=O)CN2CCN(CC(=O)O)CCN(CC(=O)O)CCN(CC(=O)O)CC2)C(=O)N[C@@H](CC(=O)O)C(N)=O)NC(=O)[C@H](CC(N)=O)NC(=O)[C@H](Cc2ccc3ccccc3c2)NC(=O)[C@H](CCC(N)=O)NC(=O)[C@H](CC(C)(C)C)NC(=O)[C@H](Cc2cccc3ccccc23)NC1=O [compound 159, Ac-(D-Ala)-S-D-C(3)-(1Nal)-(t-Bu-Ala)-Q-(2Nal)-N-C(3)-(aMe-P)-[OAF(DOTA)]-D-CONH2] (Ac-[dA]SDC[1Nal][tBuAla]Q[2Nal]NC[αMeP][X3](DOTA)D-NH2; disulfide 4-10) |
| – | 224 nM | CC(=O)N[C@H](C)C(=O)N[C@@H](CO)C(=O)N[C@@H](CC(=O)O)C(=O)N[C@@H]1C(=O)N[C@@H](Cc2cccc3ccccc23)C(=O)N[C@@H](CC(C)(C)C)C(=O)N[C@@H](CCC(N)=O)C(=O)N[C@@H](Cc2ccc3ccccc3c2)C(=O)N[C@@H](CC(N)=O)C(=O)N[C@H](C(=O)N2CCC[C@@]2(C)C(=O)N[C@@H](Cc2ccccc2)C(=O)N[C@@H](CC(=O)O)C(=O)N[C@H](CCCCNC(=O)CN2CCN(CC(=O)O)CCN(CC(=O)O)CCN(CC(=O)O)CC2)C(N)=O)CSSC1(C)C [compound 162, Ac-(D-Ala)-S-D-Pen(3)-(1Nal)-(t-Bu-Ala)-Q-(2Nal)-N-C(3)-(aMe-P)-F -D-D-Lys(DOTA)-CONH2] (Ac-[dA]SD[Pen][1Nal][tBuAla]Q[2Nal]NC[αMeP]FD[dK](DOTA)-NH2; disulfide 4-10) |
